These compounds were tested against T1, recombinant human GR (Homo sapiens, UniProt P04150) (assay: Human Glucocorticoid Receptor (GR) Assay, fluorescence polarization). Conditions: GS Red tracer, incubated 2 h at r.t., XLfit model 205, read-out: GRhuFL_FP_v2 Mean IC50.
T1 construct: purchased Panvera/Invitrogen P2812 (kit P2893)
T1 sequence (P04150 1-777): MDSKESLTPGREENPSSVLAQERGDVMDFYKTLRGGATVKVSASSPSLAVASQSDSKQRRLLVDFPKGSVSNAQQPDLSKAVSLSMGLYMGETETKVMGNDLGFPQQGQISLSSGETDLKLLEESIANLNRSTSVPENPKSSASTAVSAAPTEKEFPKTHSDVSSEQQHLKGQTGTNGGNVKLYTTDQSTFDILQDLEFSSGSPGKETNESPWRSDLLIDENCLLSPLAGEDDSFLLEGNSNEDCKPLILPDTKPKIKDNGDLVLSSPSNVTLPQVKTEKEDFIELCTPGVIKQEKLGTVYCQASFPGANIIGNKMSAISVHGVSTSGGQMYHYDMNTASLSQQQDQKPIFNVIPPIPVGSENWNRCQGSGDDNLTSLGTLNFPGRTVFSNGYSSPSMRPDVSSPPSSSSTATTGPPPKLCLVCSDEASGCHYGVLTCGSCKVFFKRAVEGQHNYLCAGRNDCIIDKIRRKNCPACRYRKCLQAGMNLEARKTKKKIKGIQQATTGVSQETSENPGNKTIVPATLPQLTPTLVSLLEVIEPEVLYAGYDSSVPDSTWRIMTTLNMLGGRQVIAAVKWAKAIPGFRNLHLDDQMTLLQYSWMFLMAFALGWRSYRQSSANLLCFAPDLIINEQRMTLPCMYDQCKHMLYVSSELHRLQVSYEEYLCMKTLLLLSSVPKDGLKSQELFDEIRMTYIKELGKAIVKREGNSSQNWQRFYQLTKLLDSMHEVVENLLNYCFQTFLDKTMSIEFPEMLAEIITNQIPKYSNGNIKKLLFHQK
Type: binding
Method: Human Glucocorticoid Receptor (GR) Assay
The assay is based on a commercial kit from Panvera/Invitrogen (Part number P2893). The assay technology is fluorescence polarization. […] The GR and Stabilizing Peptide reagents are stored at −70° C. while the GS Red is stored at −20° C. Also included in the kit are 1M DTT (Panvera, Part number P2325, stored at −20° C.) and GR Screening buffer 10× (Panvera, Part number P2814, stored at −70° C. initially but once thawed stored at r.t.). Avoid repeated freeze/thaws for all reagents. The GR Screening buffer 10× comprises 100 mM potassium phosphate, 200 mM sodium molybdate, 1 mM EDTA and 20% DMSO.
0% control was 100% DMSO and 100% control was […] Dexamethasone. Background solution (8 μL; assay buffer 10×, Stabilizing Peptide, DTT and ice cold MQ water) was added to the background wells. GS Red solution (7 μL; assay buffer 10×, Stabilizing Peptide, DTT, GS Red and ice cold water) was added to all wells except background wells. GR solution (7 μL; assay buffer 10×, Stabilizing Peptide, DTT, GR and ice cold water) was added to all wells. The plate was sealed and incubated in a dark at r.t. for 2 h.

`COc1ccccc1[C@@H](Oc1ccc2c(cnn2-c2ccc(F)cc2)c1)[C@H](C)NC(=O)C(C)(C)C` [Example 187, N-[(1R,2S)-1-[1-(4-fluorophenyl)indazol-5-yl]oxy-1-(2-methoxyphenyl)propan-2-yl]-2,2-dimethyl-propanamide] and `Cc1ccc([C@@H](Oc2ccc3c(cnn3-c3ccc(F)cc3)c2)[C@H](C)NC(=O)C(C)(C)C)c(C)c1` [Example 176, N-[(1R,2S)-1-(2,4-dimethylphenyl)-1-[1-(4-fluorophenyl)indazol-5-yl]oxy-propan-2-yl]-2,2-dimethyl-propanamide] are within 1.5-fold of each other in IC50: 4.5 nM for the first, 4.9 nM for the second.

Going from `Cc1ccc([C@@H](Oc2ccc3c(cnn3-c3ccc(F)cc3)c2)[C@H](C)NC(=O)C(C)(C)C)cc1F` [Example 173, N-[(1R,2S)-1-(3-fluoro-4-methyl-phenyl)-1-[1-(4-fluorophenyl)indazol-5-yl]oxy-propan-2-yl]-2,2-dimethyl-propanamide] to `C[C@H](NC(=O)C(C)(C)C)[C@H](Oc1ccc2c(cnn2-c2ccc(F)cc2)c1)c1ccc2c(c1)OCO2` [Example 189, N-[(1R,2S)-1-benzo[1,3]dioxol-5-yl-1-[1-(4-fluorophenyl)indazol-5-yl]oxy-propan-2-yl]-2,2-dimethyl-propanamide], the IC50 rises from 4.6 nM to 7.8 nM (1.7-fold).

`C[C@H](NC(=O)C1(O)CC1)[C@H](Oc1ccc2c(cnn2-c2ccc(F)cc2)c1)c1ccc(C(F)(F)F)cc1` [Example 139, N-[(1R,2S)-1-[1-(4-fluorophenyl)indazol-5-yl]oxy-1-[4-(trifluoromethyl)phenyl]propan-2-yl]-1-hydroxy-cyclopropane-1-carboxamide] and `C[C@H](NC(=O)C(F)(F)F)[C@H](Oc1ccc2c(cnn2-c2ccc(F)cc2)c1)c1cccc(F)c1` [Example 152, 2,2,2-trifluoro-N-[(1R,2S)-1-(3-fluorophenyl)-1-[1-(4-fluorophenyl)indazol-5-yl]oxy-propan-2-yl]acetamide] are within 1.5-fold of each other in IC50: 4.1 nM for the first, 3.6 nM for the second.

`CC(C)C(=O)N[C@@H](C)[C@H](Oc1ccc2c(cnn2-c2ccc(F)cc2)c1)c1ccccc1` [Example 37, N-[(1R,2S)-1-[1-(4-fluorophenyl)indazol-5-yl]oxy-1-phenyl-propan-2-yl]-2-methyl-propanamide] and `C[C@H](O)C(=O)N[C@@H](C)[C@H](Oc1ccc2c(cnn2-c2ccc(F)cc2)c1)c1ccccc1` [Example 48, (2S)-N-[(1R,2S)-1-[1-(4-fluorophenyl)indazol-5-yl]oxy-1-phenyl-propan-2-yl]-2-hydroxy-propanamide] are within 1.5-fold of each other in IC50: 2.4 nM for the first, 2.9 nM for the second.

`COc1cccc([C@@H](Oc2ccc3c(cnn3-c3ccc(F)cc3)c2)[C@H](C)NC(=O)c2sccc2OC)c1` [Example 292, N-[(1R,2S)-1-[1-(4-fluorophenyl)indazol-5-yl]oxy-1-(3-methoxyphenyl)propan-2-yl]-3-methoxy-thiophene-2-carboxamide] and `COc1cccc([C@@H](Oc2ccc3c(cnn3-c3ccc(F)cc3)c2)[C@H](C)NC(=O)c2ccc(Br)s2)c1` [Example 272, 5-bromo-N-[(1R,2S)-1-[1-(4-fluorophenyl)indazol-5-yl]oxy-1-(3-methoxyphenyl)propan-2-yl]thiophene-2-carboxamide] are within 1.5-fold of each other in IC50: 5.7 nM for the first, 4.3 nM for the second.

Going from `C[C@H](NC(=S)NCc1ccco1)[C@H](Oc1ccc2c(cnn2-c2ccc(F)cc2)c1)c1ccccc1` [Example 108, 1-{(1S,2R)-2-{[1-(4-Fluorophenyl)-1H-indazole-5-yl]oxy}-1-methyl-2-phenylethyl}-3-(2-furylmethyl)thiourea] to `C[C@H](NC(=O)CF)[C@H](Oc1ccc2c(cnn2-c2ccc(F)cc2)c1)c1ccccc1` [Example 45, 2-Fluoro-N-[(1R,2S)-1-[1-(4-fluorophenyl)indazol-5-yl]oxy-1-phenyl-propan-2-yl]acetamide], the IC50 falls from 4.9 nM to 2.6 nM (1.9-fold).

`COc1ccc([C@@H](Oc2ccc3c(cnn3-c3ccc(F)cc3)c2)[C@H](C)NC(=O)C2(C)CC2)cc1F` [Example 217, N-[(1R,2S)-1-(3-fluoro-4-methoxy-phenyl)-1-[1-(4-fluorophenyl)indazol-5-yl]oxy-propan-2-yl]-1-methyl-cyclopropane-1 carboxamide] and `Cc1cc(F)ccc1[C@@H](Oc1ccc2c(cnn2-c2ccc(F)cc2)c1)[C@H](C)NC(=O)C1(C)CC1` [Example 219, N-[(1R,2S)-1-(4-fluoro-2-methyl-phenyl)-1-[1-(4-fluorophenyl)indazol-5-yl]oxy-propan-2-yl]-1-methyl-cyclopropane-1-carboxamide] are within 1.5-fold of each other in IC50: 3.9 nM for the first, 2.8 nM for the second.

Going from `COc1cccc([C@@H](Oc2ccc3c(cnn3-c3ccc(F)cc3)c2)[C@H](C)NC(=O)c2sc(C(F)(F)F)cc2O)c1` [Example 298, N-[(1R,2S)-1-[1-(4-fluorophenyl)indazol-5-yl]oxy-1-(3-methoxyphenyl)propan-2-yl]-3-hydroxy-5-(trifluoromethyl)thiophene-2-carboxamide] to `COc1cccc([C@@H](Oc2ccc3c(cnn3-c3ccc(F)cc3)c2)[C@H](C)NC(=O)c2cc[nH]n2)c1` [Example 279, N-[(1R,2S)-1-[1-(4-fluorophenyl)indazol-5-yl]oxy-1-(3-methoxyphenyl)propan-2-yl]-1H-pyrazole-3-carboxamide], the IC50 falls from 15 nM to 3.8 nM (3.9-fold). The second is the more potent here.

`Cc1cc2c(cnn2-c2ccc(F)cc2)cc1O[C@H](c1ccccc1)[C@H](C)NC(=O)C(F)(F)F` [Example 62, 2,2,2-Trifluoro-N-[(1R,2S)-1-[1-(4-fluorophenyl)-6-methyl-indazol-5-yl]oxy-1-phenyl-propan-2-yl]acetamide] and `CCc1cccc([C@@H](Oc2ccc3c(cnn3-c3ccc(F)cc3)c2)[C@H](C)NC(=O)C(F)(F)F)c1` [Example 22, N-[(1R,2S)-1-(3-ethylphenyl)-1-[1-(4-fluorophenyl)indazol-5-yl]oxy-propan-2-yl]-2,2,2-trifluoro-acetamide] are within 1.5-fold of each other in IC50: 3.5 nM for the first, 4.7 nM for the second.

Compared with `Cc1cc(C)c([C@@H](Oc2ccc3c(cnn3-c3ccc(F)cc3)c2)[C@H](C)NC(=O)C(F)(F)F)cc1C` [Example 162, 2,2,2-trifluoro-N-[(1R,2S)-1-[1-(4-fluorophenyl)indazol-5-yl]oxy-1-(2,4,5-trimethylphenyl)propan-2-yl]acetamide], `Cc1ccc([C@@H](Oc2ccc3c(cnn3-c3ccc(F)cc3)c2)[C@H](C)NC(=O)C(F)(F)F)c(C)c1` [Example 154, N-[(1R,2S)-1-(2,4-dimethylphenyl)-1-[1-(4-fluorophenyl)indazol-5-yl]oxy-propan-2-yl]-2,2,2-trifluoro-acetamide] is 3-fold lower in IC50: 14 nM for the first, 4.7 nM for the second. The second is the more potent here.

`Cc1cc(C)c([C@@H](Oc2ccc3c(cnn3-c3ccc(F)cc3)c2)[C@H](C)NC(=O)C2(C)CC2)cc1C` [Example 224, N-[(1R,2S)-1-[1-(4-fluorophenyl)indazol-5-yl]oxy-1-(2,4,5-trimethylphenyl)propan-2-yl]-1-methyl-cyclopropane-1-carboxamide] and `Cc1ccc(C)c([C@@H](Oc2ccc3c(cnn3-c3ccc(F)cc3)c2)[C@H](C)NC(=O)C(C)(C)CO)c1` [Example 254, N-[(1R,2S)-1-(2,5-dimethylphenyl)-1-[1-(4-fluorophenyl)indazol-5-yl]oxy-propan-2-yl]-3-hydroxy-2,2-dimethyl-propanamide] are within 1.5-fold of each other in IC50: 5.7 nM for the first, 8.5 nM for the second.

Going from `C[C@H](NC(=O)C(F)(F)F)[C@H](Oc1ccc2c(cnn2-c2ccc(F)cc2)c1)c1ccc2c(c1)OCC2` [Example 307, N-((1R,2S)-1-(2,3-dihydrobenzofuran-6-yl)-1-(1-(4-fluorophenyl)-1H-indazol-5-yloxy)propan-2-yl)-2,2,2-trifluoroacetamide] to `COc1c(C)cc([C@@H](Oc2ccc3c(cnn3-c3ccc(F)cc3)c2)[C@H](C)NC(=O)C(C)(F)F)cc1C` [Example 236, 2,2-difluoro-N-[(1R,2S)-1-[1-(4-fluorophenyl)indazol-5-yl]oxy-1-(4-methoxy-3,5-dimethyl-phenyl)propan-2-yl]propanamide], the IC50 rises from 4.8 nM to 7.2 nM (1.5-fold). The first is the more potent here.

Compound `CNC(=O)C(=O)N[C@@H](C)[C@H](Oc1ccc2c(cnn2-c2ccc(F)cc2)c1)c1cccc(OC)c1` [Example 79, N-[(1R,2S)-1-[1-(4-Fluorophenyl)indazol-5-yl]oxy-1-(3-methoxyphenyl)propan-2-yl]-N′-methyl-oxamide] has an IC50 of 2.6 nM.

Source: US8143290B2, “Chemical compounds 572” (AstraZeneca AB, priority 2006, dated 2012)
